Results reported in patent US8268821B2, “Methods and compositions” (priority 2003, dated 2012).

System: cancer-related neuropathic pain
Assay: Open label dose escalation study of flupirtine, case studies JE and RM
Details: RM; ketamine for six days prior to the flupirtine trial

Q: Which pain control does the source give for CNC1(c2ccccc2Cl)CCCCC1=O (stereo not shown) [ketamine] here?
A: failed to control pain
